Laboratory results published in US20260102377A1, “COMPOSITIONS AND METHODS FOR TREATING MYASTHENIA GRAVIS” (priority 2022, published 2026).

Columns and labels:
[1] = target: T1, CIC-1 (Rattus norvegicus, UniProt P35524); assay: Resting membrane conductance (Gm) in muscle fibres of isolated nerve-muscle preparations; type: cell-based
T1 construct: from tissue; host or cells: soleus or diaphragm muscle of healthy and EAMG Lewis rats
T1 sequence (P35524 1-994): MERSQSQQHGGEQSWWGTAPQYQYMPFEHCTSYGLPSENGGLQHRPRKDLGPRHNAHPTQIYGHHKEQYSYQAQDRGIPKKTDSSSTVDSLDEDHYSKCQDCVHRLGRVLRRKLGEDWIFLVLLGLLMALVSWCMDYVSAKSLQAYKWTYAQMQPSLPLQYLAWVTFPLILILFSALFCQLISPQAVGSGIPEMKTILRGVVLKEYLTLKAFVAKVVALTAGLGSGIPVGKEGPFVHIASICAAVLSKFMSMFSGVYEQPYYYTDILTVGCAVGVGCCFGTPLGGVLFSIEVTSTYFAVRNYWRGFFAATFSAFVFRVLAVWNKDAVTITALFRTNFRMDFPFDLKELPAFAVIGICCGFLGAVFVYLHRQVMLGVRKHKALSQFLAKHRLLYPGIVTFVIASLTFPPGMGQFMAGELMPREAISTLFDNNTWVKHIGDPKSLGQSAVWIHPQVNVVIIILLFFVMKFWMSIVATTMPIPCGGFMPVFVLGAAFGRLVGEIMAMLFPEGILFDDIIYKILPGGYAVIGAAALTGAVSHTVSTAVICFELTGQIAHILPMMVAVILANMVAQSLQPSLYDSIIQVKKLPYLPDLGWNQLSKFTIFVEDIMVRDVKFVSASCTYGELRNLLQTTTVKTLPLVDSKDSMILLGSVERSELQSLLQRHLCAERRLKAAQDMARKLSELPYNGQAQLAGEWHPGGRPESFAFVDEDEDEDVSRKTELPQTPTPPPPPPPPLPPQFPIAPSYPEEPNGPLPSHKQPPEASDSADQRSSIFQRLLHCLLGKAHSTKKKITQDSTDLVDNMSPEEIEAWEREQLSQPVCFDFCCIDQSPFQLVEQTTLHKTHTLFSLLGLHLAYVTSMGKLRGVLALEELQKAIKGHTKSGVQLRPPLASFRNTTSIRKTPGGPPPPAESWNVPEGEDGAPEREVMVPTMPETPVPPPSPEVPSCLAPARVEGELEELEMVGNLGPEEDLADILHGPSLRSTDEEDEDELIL
Description: (§1) To allow for measurements of electrophysiological properties at the cellular level and for measurements of force, it was necessary to isolate nerve-muscle preparations from the rats. To this end, animals were sacrificed, and muscles were dissected out with 1 to 3 cm of intact nerve. The nerve-muscle preparations were then transferred to the organ baths used for the particular experiments (see below) and perfused with Normal Krebs-Ringer (NKR) solution, consisting of (in mM); 122 NaCl, 25 NaHCO3, 2.8 KCl, 1.2 KH2PO4, 1.2 MgSO4 1.27 CaCl2 and 5 D-glucose. This NKR solution was continuously gassed with a mixture of 95% oxygen and 5% CO2, to maintain a pH of approx. 7.4. In some experiments methyl-sulphate was used to replace Cl^− in the solution. All chemicals used were of analytical grade.

[2] = system: soleus muscle fibres from healthy and EAMG rats; assay: Rheobase current (muscle fibre excitability) in soleus muscle fibres; type: cell-based, rat; details: 20 μM NMD670; soleus muscle fibres from healthy (n=20) and EAMG (n=12) rats, before vs after addition
Description: as §1

[3] = system: muscle fibres from EAMG rats; assay: Endplate potentials (EPP) in isolated nerve-muscle preparations; type: cell-based, rat; details: 20 μM NMD670
Description: The effect of CIC-1 inhibition on neuromuscular transmission was investigated at the cellular level by recording endplate potentials (EPPs) with intracellular electrodes in isolated nerve-muscle preparations from healthy and EAMG rats (score 0-2). Muscle preparations used in the experiments were diaphragm or levator longus auris (LAL) providing the advantage to dissect out 1-3 cm of intact motor nerve. After dissection, preparations were immediately mounted in a chamber perfused with NKR at a temperature of 30-31° C., pH 7.4-7.5. […]

Structure (SMILES): C[C@H](Oc1ccc(Br)cc1-c1ccon1)C(=O)O [NMD670, (2S)-2-[4-bromo-2-(1,2-oxazol-3-yl)phenoxy]propanoic acid]
- Membrane conductance (Gm) ([1]; 20 μM NMD670, rat soleus muscle from healthy (n=20) and EAMG (n=12) animals, before vs after addition): statistically significantly reduced Gm
- Membrane conductance (Gm) in bathing solution free of Cl− ([1]; increasing concentration of NMD670, Cl−-free solution): did not reduced Gm
- Rheobase current [2]: significantly reduced rheobase current
- Endplate potential (EPP) in muscle fibres from EAMG rats vs healthy rats [3]: could be restored
- Increase of endplate potential (EPP) amplitude ([3]; EAMG rats, throughout a 12 Hz train of 30 stimulations, 82 fibres vs 68 fibres without inhibitor): more than 35%
